Patent US11807644B2 (PMV Pharmaceuticals, Inc., priority 2020, dated 2023)

Biological target: T1, recombinant His-tag Y220C p53 DBD protein (Homo sapiens, UniProt P04637, Y220C)
T1 construct: recombinant His-tag Y220C p53 DBD protein (amino acids #˜94-312)
Experiment: In vitro DNA binding activity assay (TR-FRET): binding of His-tag Y220C p53 DBD to biotin-labeled consensus DNA
Assay type: biochemical
Conditions: SC150 = concentration to increase DNA binding by […], His-tag Y220C p53 DBD, biotin-labeled consensus DNA

Y220C SC150 (μM)	SMILES
** (** = 0.1 μM ≤ SC150 < 0.5 μM)	CN1CCC(Nc2cccc3c2cc(-c2ccc(CNc4ccc(S(C)(=O)=O)cc4)s2)n3CC(F)(F)F)CC1 [Compound 100B, 2-(5-{[(4-methanesulfonylphenyl)amino]methyl}thiophen-2-yl)-N-(1-methylpiperidin-4-yl)-1-(2,2,2-trifluoroethyl)-1H-indol-4-amine]
** (** = 0.1 μM ≤ SC150 < 0.5 μM)	CN1CCC(Nc2cccc3c2cc(-c2nnc(CNc4ccccc4)o2)n3CC(F)(F)F)CC1 [Compound 108B, N-(1-methylpiperidin-4-yl)-2-{5-[(phenylamino)methyl]-1,3,4-oxadiazol-2-yl}-1-(2,2,2-trifluoroethyl)-1H-indol-4-amine]
*** (*** = 0.5 μM ≤ SC150 < 1 μM)	CN1CCC(Nc2cccc3c2cc(-c2nnc(CNC(=O)C4CC4)o2)n3CC(F)(F)F)CC1 [Compound 110B, N-[(5-{4-[(1-methylpiperidin-4-yl)amino]-1-(2,2,2-trifluoroethyl)-1H-indol-2-yl}-1,3,4-oxadiazol-2-yl)methyl]cyclopropanecarboxamide]
** (** = 0.1 μM ≤ SC150 < 0.5 μM)	CN1CCC(Nc2cccc3c2cc(-c2nnc(CNc4ccc(S(C)(=O)=O)cc4)o2)n3CC(F)(F)F)CC1 [Compound 111B, 2-(5-{[(4-methanesulfonylphenyl)amino]methyl}-1,3,4-oxadiazol-2-yl)-N-(1-methylpiperidin-4-yl)-1-(2,2,2-trifluoroethyl)-1H-indol-4-amine]
*** (*** = 0.5 μM ≤ SC150 < 1 μM)	CN1CCC(Nc2cccc3c2cc(-c2nnc(CNc4cn[nH]c4)o2)n3CC(F)(F)F)CC1 [Compound 112B, N-(1-methylpiperidin-4-yl)-2-(5-{[(1H-pyrazol-4-yl)amino]methyl}-1,3,4-oxadiazol-2-yl)-1-(2,2,2-trifluoroethyl)-1H-indol-4-amine]
* (* = 0 μM ≤ SC150 < 0.1 μM)	CN1CCC(Nc2cccc3c2cc(-c2nc(CNc4ccc(S(C)(=O)=O)cc4)no2)n3CC(F)(F)F)CC1 [Compound 136B, N-(1-methylpiperidin-4-yl)-2-(3-(((4-(methylsulfonyl)phenyl)amino)methyl)-1,2,4-oxadiazol-5-yl)-1-(2,2,2-trifluoroethyl)-1H-indol-4-amine]
** (** = 0.1 μM ≤ SC150 < 0.5 μM)	CN1CCC(Nc2cccc3c2cc(-c2nc(CNC(=O)C4CC4)no2)n3CC(F)(F)F)CC1 [Compound 137B, N-[(5-{4-[(1-methylpiperidin-4-yl)amino]-1-(2,2,2-trifluoroethyl)-1H-indol-2-yl}-1,2,4-oxadiazol-3-yl)methyl]cyclopropanecarboxamide]
** (** = 0.1 μM ≤ SC150 < 0.5 μM)	CN1CCC(Nc2cccc3c2cc(-c2nc(CNC(=O)c4ccccc4)no2)n3CC(F)(F)F)CC1 [Compound 138B, N-[(5-{4-[(1-methylpiperidin-4-yl)amino]-1-(2,2,2-trifluoroethyl)-1H-indol-2-yl}-1,2,4-oxadiazol-3-yl)methyl]benzamide]
** (** = 0.1 μM ≤ SC150 < 0.5 μM)	CN1CCC(Nc2cccc3c2cc(-c2nc(CNC(=O)c4cccs4)no2)n3CC(F)(F)F)CC1 [Compound 139B, N-[(5-{4-[(1-methylpiperidin-4-yl)amino]-1-(2,2,2-trifluoroethyl)-1H-indol-2-yl}-1,2,4-oxadiazol-3-yl)methyl]thiophene-2-carboxamide]
** (** = 0.1 μM ≤ SC150 < 0.5 μM)	CN1CCC(Nc2cccc3c2cc(-c2nc(CNC(=O)c4cnn(C)c4)no2)n3CC(F)(F)F)CC1 [Compound 140B, 1-methyl-N-[(5-{4-[(1-methylpiperidin-4-yl)amino]-1-(2,2,2-trifluoroethyl)-1H-indol-2-yl}-1,2,4-oxadiazol-3-yl)methyl]-1H-pyrazole-4-carboxamide]
** (** = 0.1 μM ≤ SC150 < 0.5 μM)	CN1CCC(Nc2cccc3c2cc(-c2nc(CNC(=O)c4ccn(C)n4)no2)n3CC(F)(F)F)CC1 [Compound 141B, 1-methyl-N-[(5-{4-[(1-methylpiperidin-4-yl)amino]-1-(2,2,2-trifluoroethyl)-1H-indol-2-yl}-1,2,4-oxadiazol-3-yl)methyl]-1H-pyrazole-3-carboxamide]
* (* = 0 μM ≤ SC150 < 0.1 μM)	CN1CCC(Nc2cccc3c2cc(-c2noc(CNc4ccccc4)n2)n3CC(F)(F)F)CC1 [Compound 142B, N-(1-methylpiperidin-4-yl)-2-{5-[(phenylamino)methyl]-1,2,4-oxadiazol-3-yl}-1-(2,2,2-trifluoroethyl)-1H-indol-4-amine]
* (* = 0 μM ≤ SC150 < 0.1 μM)	CN1CCC(Nc2cccc3c2cc(-c2noc(CNC(=O)c4cccs4)n2)n3CC(F)(F)F)CC1 [Compound 143B, N-[(3-{4-[(1-methylpiperidin-4-yl)amino]-1-(2,2,2-trifluoroethyl)-1H-indol-2-yl}-1,2,4-oxadiazol-5-yl)methyl]thiophene-2-carboxamide]
* (* = 0 μM ≤ SC150 < 0.1 μM)	CN1CCC(Nc2cccc3c2cc(-c2noc(CNC(=O)c4ccccc4)n2)n3CC(F)(F)F)CC1 [Compound 144B, N-[(3-{4-[(1-methylpiperidin-4-yl)amino]-1-(2,2,2-trifluoroethyl)-1H-indol-2-yl}-1,2,4-oxadiazol-5-yl)methyl]benzamide]
* (* = 0 μM ≤ SC150 < 0.1 μM)	CN1CCC(Nc2cccc3c2cc(-c2noc(CNC(=O)c4ccc(Cl)cc4)n2)n3CC(F)(F)F)CC1 [Compound 148B, 4-chloro-N-[(3-{4-[(1-methylpiperidin-4-yl)amino]-1-(2,2,2-trifluoroethyl)-1H-indol-2-yl}-1,2,4-oxadiazol-5-yl)methyl]benzamide]
* (* = 0 μM ≤ SC150 < 0.1 μM)	CN1CCC(Nc2cccc3c2cc(-c2noc(CNC(=O)c4nccs4)n2)n3CC(F)(F)F)CC1 [Compound 149B, N-[(3-{4-[(1-methylpiperidin-4-yl)amino]-1-(2,2,2-trifluoroethyl)-1H-indol-2-yl}-1,2,4-oxadiazol-5-yl)methyl]-1,3-thiazole-2-carboxamide]
* (* = 0 μM ≤ SC150 < 0.1 μM)	CN1CCC(Nc2cccc3c2cc(-c2noc(CNC(=O)c4ccc(F)cc4)n2)n3CC(F)(F)F)CC1 [Compound 150B, 4-fluoro-N-[(3-{4-[(1-methylpiperidin-4-yl)amino]-1-(2,2,2-trifluoroethyl)-1H-indol-2-yl}-1,2,4-oxadiazol-5-yl)methyl]benzamide]
* (* = 0 μM ≤ SC150 < 0.1 μM)	CN1CCC(Nc2cccc3c2cc(-c2noc(CNC(=O)c4ccc(C#N)cc4)n2)n3CC(F)(F)F)CC1 [Compound 151B, 4-cyano-N-[(3-{4-[(1-methylpiperidin-4-yl)amino]-1-(2,2,2-trifluoroethyl)-1H-indol-2-yl}-1,2,4-oxadiazol-5-yl)methyl]benzamide]
* (* = 0 μM ≤ SC150 < 0.1 μM)	CN1CCC(Nc2cccc3c2cc(-c2noc(CNC(=O)c4ccn(C)c4)n2)n3CC(F)(F)F)CC1 [Compound 152B, 1-methyl-N-[(3-{4-[(1-methylpiperidin-4-yl)amino]-1-(2,2,2-trifluoroethyl)-1H-indol-2-yl}-1,2,4-oxadiazol-5-yl)methyl]-1H-pyrrole-3-carboxamide]
* (* = 0 μM ≤ SC150 < 0.1 μM)	CN1CCC(Nc2cccc3c2cc(-c2noc(CNC(=O)Nc4ccccc4)n2)n3CC(F)(F)F)CC1 [Compound 153B, 3-[(3-{4-[(1-methylpiperidin-4-yl)amino]-1-(2,2,2-trifluoroethyl)-1H-indol-2-yl}-1,2,4-oxadiazol-5-yl)methyl]-1-phenylurea]
